These results are taken from patent US20170172953A1, “SELF-ASSEMBLING DRUG DELIVERY VEHICLES WITH IONICALLY CROSS-LINKED DRUGS” (WILLIAM MARSH RICE UNIVERSITY, priority 2014, published 2017).

Entries after “also recorded” stand apart in the source; their conditions may differ.

Data set [1] in a line: Suramin drug loading and release from MDP hydrogel into HBSS. Type of data set: physicochemical. The method, then: Suramin was dissolved in 0.9% saline and loaded into MDP hydrogel (100 μL of SLac dissolved in 298 mM sucrose+100 μL of drug/saline) in microcentrifuge tubes. 1 mL of release media (HBSS) was added to gels placed in a humidified 5% CO2 cell culture incubator at 37° C. 200 μL aliquots of release media were assayed, with replenishment, daily for 30 days. To determine short term release kinetics, in a separate setup, aliquots were assayed at 1, 2, 4, 8, 12, 24, 48 and 72 hr. Concentration of drug was determined using UV spectrophotometry at 313 nm, n=5. Mass release data were plotted as a function of cumulative release of drug in Sigmaplot. Drug release was modeled using the Korsmeyer-Peppas equation.

Data set [2] is described as follows: Parallel plate rheometry of crosslinked SLac peptide hydrogels. Type of data set: physicochemical. Particulars: drug as crosslinker of 1 w % SLac hydrogel, pH 7.4. The procedure: Peptide solutions were made by dissolving lyophilized SLac in 298 mM sucrose-water at a concentration of 2 w %, pH 7.4. Hydrogels were constructed by addition of Hank's balanced salt solution (HBSS) at a 1:1 ratio. Multivalent drugs were added at similar concentrations, approximating physiological doses, to SLac solutions with final concentrations of: SLac—0.4 mM (1 w %); concentration of positive lysine charges—0.8 mM; suramin—3.8 mM (0.5 w %) or 0.38 mM (0.05 w %); trypan blue—3.2 mM (0.2 w %); heparin ˜2.78 mM (5 w %); clodronate disodium—3.4 mM; phosphate buffer—38 mM and 5 mM; and 0.9% saline. Negatively charged polyvalent ions in buffer solution facilitated intermolecular ionic interactions with lysine residues, crosslinking the hydrogel. Rheological behavior of peptide hydrogels was determined using an 8 mm parallel plate geometry at a gap of 250 μm. 50 μL of hydrogel was constructed and, within 30 min, placed on stainless steel plates of a rheometer. A frequency sweep (0.1-100 Hz, at constant 1% strain), strain sweep (0-1000%/strain, at 1 Hz) and shear recovery (1% strain for 30 min, 100% strain for 60 s, 1% strain for 30 min) were performed. We ensured the phase angle δ≦90° to ensure no slipping.

On to `Cc1ccc(C(=O)Nc2ccc(S(=O)(=O)O)c3cc(S(=O)(=O)O)cc(S(=O)(=O)O)c23)cc1NC(=O)c1cccc(NC(=O)Nc2cccc(C(=O)Nc3cc(C(=O)Nc4ccc(S(=O)(=O)O)c5cc(S(=O)(=O)O)cc(S(=O)(=O)O)c45)ccc3C)c2)c1` [suramin], for which the mechanism of release result in data set [1] (1 mg/mL loaded gels) is on record as “non-Fickian diffusion/Case II transport dependent”; in data set [1] (10 mg/mL loaded gels), “diffusion dependent”. Besides, the “release exponent (t) of Korsmeyer-Peppas model” value is reported as “≈ 1.0” in data set [1] (1 mg/mL loaded gels) and “≈ 0.5” in data set [1] (10 mg/mL loaded gels). The “Maximum cumulative suramin concentration” value in data set [1] (high loading) stood at 0.6 mg/mL; in data set [1] (low loading), 0.04 mg/mL. In data set [1] (over a 20 day period, from SLac-based scaffolds), the drug release result was “approximately 50%”. In addition, the “retention of drug ionically cross-linked” value in data set [1] (over a period of 30 days) is “up to 40%”. Further, the “drug releasing from hydrogel scaffolds” value in data set [1] (over the first 30 days, depending on loading concentration) is on record as 40-60%. For the same compound, the “mechanical strength, storage modulus G′ / loss modulus G″” value in data set [2] was “order of magnitude increase in mechanical strength with increase in concentration; also recorded: an order of magnitude higher G′/G″”.
